In US11241437B2, “Heterocyclic compounds, preparation methods and uses thereof” (InventisBio Co., Ltd., priority 2019, dated 2022):
In brackets after ≈: the same amount, converted by molar mass.

Columns and labels:
Format in all cases: physicochemical
[1] = Solubility of Form A and Form B of Compound 2 in bio-relevant media; settings: for Solubility: 37° C.; for XRPD patterns of remaining solids: FaSSIF and water, at 24 hours; for solubility at 0.5 h / solubility at 2 h / solubility at 24 h: 37 °C, thermodynamic from solid
Description: Solubility in Bio-relevant Media: Form A and Form B was added into SGF, FeSSIF, FaSSIF and water, respectively. The suspensions were kept shaking at 37° C. with 200 rpm for 24 hours. At 0.5 h, 2 h and 24 h, suspensions were filtered and drug concentrations of filtrates were analyzed by HPLC. pH of filtrates was measured at each time point. The remaining solids at 24 hours were characterized by XRPD.

[2] = Manual grinding of Form A and Form B of Compound 2; settings: ground manually for 5 min
Description: About 10-20 mg of Compound 2 in Form A and Form B were ground manually for 5 min, respectively.

[3] = Solubility of Form A of Compound 2 in organic solvents; settings: for Solubility: organic solvent or mixture
[4] = Dynamic moisture sorption analysis (DVS) of Form B of Compound 2
Description: Method 2. Used for studies with solid state of Compound 2. Moisture sorption/desorption data was collected on IGAsorp Dynamic Moisture Sorption Analyzer. The sample was placed into a tarred sample chamber and automatically weighed. The sample was dried at 50° C. until the humidity was less than 0.3% and cooled to 25° C. The instrument parameters were set as given below.

[5] = Solid state stability of Form B of Compound 2
Description: Method 2. HPLC analysis was performed with an Agilent HPLC 1260 series instrument. A representative HPLC method used for purity, solubility and stability study for Compound 2 analysis.
Solid State Stability of Form B: About 10 mg of Form B was open placed at 40° C./75% RH and 60° C. for 7 days and at 25° C./92.5% RH for 10 days, respectively. Prepare samples in duplicate (n=2) per condition. The solids were analyzed by XRPD and HPLC (only for 40° C./75% RH and 60° C.).

[6] = Solubility of amorphous Compound 1 in solvents (anti-solvent precipitation screening); settings: RT
[7] = Solubility of Compound 1 solid forms in bio-relevant media and water; settings: FaSSIF
Description: Solubility Studies: Solubility of Form IV was tested in three bio-relevant media (Simulated Gastric Fluid (SGF), Fasted State Simulated Intestinal Fluid (FaSSIF), and Fed State Simulated Intestinal Fluid (FeSSIF)) and water. […] Form IV (˜10 mg) was weighed into 2 mL of four media to make suspensions respectively, and about 10 mg of the amorphous starting material was also added into 2 mL of FaSSIF. Then all suspensions were shaken at 37° C. with 200 rpm for up to 24 hours. At 0.5, 2 and 24 hours, about 0.7 mL of each suspension was filtered. The filtrate was analyzed by HPLC and pH meter, and the residual solids were also checked by XRPD at 24 hours.

pKa of Compounds 1 and 2 = test: pKa of Compounds 1 and 2
[8] = Competitive slurry (interconversion) of Form A, Form B and Form C of Compound 2; settings: RT or 50° C.
Description: Interconversion Studies: Competitive slurry of Form A, Form B and Form C was performed in acetone and acetone/water (1/4) at RT or 50° C., with details shown below.

[9] = Interconversion studies of solid forms of Compound 1 (slurry)
Description: Interconversion Studies: Equal amounts (˜7 mg) of Form I, II and III were mixed together and then suspended in 0.5 mL of different solvents at room temperature or 50° C., respectively. Residual solids were collected by filtration and characterized at appropriate time. Additionally, Form IV (˜12 mg) was slurried in 0.5 ml, water or MeOH/water (1/4) at RT or 50° C. for 3 days. Residual solids were collected by filtration and analyzed by XRPD.

[10] = Polymorph characterization summary of Compound 1 forms (form stability)
Description: In the polymorph screening, five XRPD Patterns (FIG. 11) were generated, and four forms were identified including 2 anhydrates and 2 hydrates.

C=CC(=O)N1C[C@H](C)N(c2nc(=O)n(-c3c(C4CC4)ncnc3C3CC3)c3nc(-c4c(N)cccc4F)c(F)cc23)C[C@H]1C (single isomer, unassigned) [Form A]
Solubility ([1]; FaSSIF (pH 6.5), 0.5 h): 19 µg/mL (≈ 31.7 µM) | Solubility ([1]; FaSSIF (pH 6.5), 2 h): 29 µg/mL (≈ 48.4 µM) | Solubility ([1]; FaSSIF (pH 6.5), 24 h): 24 µg/mL (≈ 40.1 µM) | Solubility ([1]; FeSSiF (pH 5.0), 0.5 h): 41 µg/mL (≈ 68.5 µM) | Solubility ([1]; FeSSiF (pH 5.0), 2 h): 45 µg/mL (≈ 75.2 µM) | Solubility ([1]; FeSSiF (pH 5.0), 24 h): 42 µg/mL (≈ 70.2 µM) | Solubility ([1]; SGF (pH 1.2), 0.5 h): 67 µg/mL (≈ 112 µM) | Solubility ([1]; SGF (pH 1.2), 2 h): 72 µg/mL (≈ 120 µM) | Solubility ([1]; SGF (pH 1.2), 24 h): 170 µg/mL (≈ 284 µM) | XRPD patterns of remaining solids ([1]; SGF, FeSSIF): unchanged | Solubility ([1]; Water, 0.5 h): 15 µg/mL (≈ 25.1 µM) | Solubility ([1]; Water, 2 h): 25 µg/mL (≈ 41.8 µM) | Solubility ([1]; Water, 24 h): 43 µg/mL (≈ 71.8 µM) | Crystal form after grinding [2]: unchanged | Solubility in other solvents [3]: practically insoluble | Solubility ([3]; DCM, read-out: Solubility in DCM): > 92000 µg/mL | Solubility ([3]; MeOH, butanone, THF, ACN, acetone, read-out: Solubility in MeOH, butanone, THF, ACN and acetone): 20000 to 33000 µg/mL (≈ 33400 to 55100 µM)

C=CC(=O)N1C[C@H](C)N(c2nc(=O)n(-c3c(C4CC4)ncnc3C3CC3)c3nc(-c4c(N)cccc4F)c(F)cc23)C[C@H]1C (single isomer, unassigned) [Form B]
solubility at 0.5 h ([1]; FaSSIF, pH 6.5, fassif, FaSSIF (pH 6.5), 0.5 h): 16 µg/mL (≈ 26.7 µM) | solubility at 2 h ([1]; FaSSIF, pH 6.5, fassif, FaSSIF (pH 6.5), 2 h): 51 µg/mL (≈ 85.2 µM) | solubility at 24 h ([1]; FaSSIF, pH 6.5, fassif, FaSSIF (pH 6.5), 24 h): 18 µg/mL (≈ 30.1 µM) | solubility at 0.5 h ([1]; FeSSIF, pH 5, fessif, FeSSiF (pH 5.0), 0.5 h): 44 µg/mL (≈ 73.5 µM) | solubility at 2 h ([1]; FeSSIF, pH 5, fessif, FeSSiF (pH 5.0), 2 h): 43 µg/mL (≈ 71.8 µM) | solubility at 24 h ([1]; FeSSIF, pH 5, fessif, FeSSiF (pH 5.0), 24 h): 37 µg/mL (≈ 61.8 µM) | Solubility ([1]; SGF (pH 1.2), 24 h): 56 µg/mL (≈ 93.5 µM) | solubility at 0.5 h ([1]; SGF, pH 1.2, simulated gastric fluid, SGF (pH 1.2), 0.5 h): 60 µg/mL (≈ 100 µM) | solubility at 2 h ([1]; SGF, pH 1.2, simulated gastric fluid, SGF (pH 1.2), 2 h): 58 µg/mL (≈ 96.9 µM) | XRPD patterns of remaining solids ([1]; SGF, FeSSIF): unchanged | Solubility ([1]; Water, 24 h): 19 µg/mL (≈ 31.7 µM) | solubility at 0.5 h ([1]; water, 0.5 h): 21 µg/mL (≈ 35.1 µM) | solubility at 2 h ([1]; water, 2 h): 20 µg/mL (≈ 33.4 µM) | Crystal form after grinding [2]: crystallinity of Form B became weak | Crystal form after DVS testing [4]: without changing of crystal form | Hygroscopicity (DVS) ([4]; 25° C.): slightly hygroscopic | Water absorbed (DVS) ([4]; at 0-80% RH, 25° C.): ~0.84% | XRPD ([5]; 25° C./92.5% RH, After 10 d): Unchanged | Purity-7 d ([5]; 40° C./75% RH): 98.97 Area % | XRPD ([5]; 40° C./75% RH, After 7 d): Unchanged | Purity decrease ([5]; 60° C. for 7 days): 0.16% | Purity-7 d ([5]; 60° C.): 98.82 Area % | XRPD ([5]; 60° C., After 7 d): Unchanged | Initial Purity ([5]; initial, before storage): 98.98 Area %

C=CC(=O)N1C[C@H](C)N(c2nc(=O)n(-c3c(C4CC4)ncnc3C3CC3)c3nc(-c4c(N)cccc4F)c(Cl)cc23)C[C@H]1C [Amorphous material]
Solubility in MTBE, water and heptane [6]: low solubility | Solubility in most solvents [6]: high solubility | Solubility ([7]; 37° C., 0.5 h): 302 µg/mL (≈ 491 µM) | Solubility ([7]; 37° C., 2 h): 263 µg/mL (≈ 428 µM) | Solubility ([7]; 37° C., 24 h): 283 µg/mL (≈ 460 µM) | XRPD-24 h of residual solids ([7]; 37° C., 24 h): unchanged | Solubility in FaSSIF ([7]; time point not stated, listed as amorphous starting material): 300 µg/mL (≈ 488 µM)

C=CC(=O)N1C[C@H](C)N(c2nc(=O)n(-c3c(C4CC4)ncnc3C3CC3)c3nc(-c4c(N)cccc4F)c(Cl)cc23)C[C@H]1C [Compound 1]
pKa (pKa of Compounds 1 and 2): ~3

C=CC(=O)N1C[C@H](C)N(c2nc(=O)n(-c3c(C4CC4)ncnc3C3CC3)c3nc(-c4c(N)cccc4F)c(F)cc23)C[C@H]1C [Compound 2]
pKa (pKa of Compounds 1 and 2): ~3

C=CC(=O)N1C[C@H](C)N(c2nc(=O)n(-c3c(C4CC4)ncnc3C3CC3)c3nc(-c4c(N)cccc4F)c(F)cc23)C[C@H]1C [Form A, Form B and Form C]
Form after competitive slurry ([8]; non-aqueous solvent (acetone), after 1 day): completely converted to Form B | Form after competitive slurry ([8]; solvent-aqueous solution (acetone/water 1/4), after 7 days): showed tendency to convert to Form B

C=CC(=O)N1C[C@H](C)N(c2nc(=O)n(-c3c(C4CC4)ncnc3C3CC3)c3nc(-c4c(N)cccc4F)c(Cl)cc23)C[C@H]1C [Form I, II and III]
XRPD of wet cake ([9]; EA/MTBE (1/4), 50° C., 3 days): Form IV | XRPD of wet cake ([9]; EA/MTBE (1/4), RT, 3 days): Form IV | XRPD of wet cake ([9]; IPA, 50° C., 4 days): Form IV | XRPD of wet cake ([9]; IPA, RT, 3 days): Pattern 1 | XRPD of wet cake ([9]; MeOH/Water (1/4), 50° C., 3 days): Form IV | XRPD of wet cake ([9]; MeOH/Water (1/4), RT, 3 days): Form II

C=CC(=O)N1C[C@H](C)N(c2nc(=O)n(-c3c(C4CC4)ncnc3C3CC3)c3nc(-c4c(N)cccc4F)c(Cl)cc23)C[C@H]1C [Form III]
Stability of the solid form [10]: not stable

C=CC(=O)N1C[C@H](C)N(c2nc(=O)n(-c3c(C4CC4)ncnc3C3CC3)c3nc(-c4c(N)cccc4F)c(Cl)cc23)C[C@H]1C [Form II]
Stability of the solid form [10]: not stable
